Like-named read-outs stand apart in the source and are kept apart here.
How the values were obtained:
PATU‐T = assay: SRB chemosensitivity assay, PATU‐T cells; assay type: cell-based; conditions: read-out: IC50 PATU‐T
Experimental: Three lines of immortalized PDAC cells were selected as representative phenotypes: mesenchymal (PATU‐T), quasimesenchymal (PANC‐1), and an epithelial clone of SUIT 2 cells (SUIT 2.28). Cells were cultured in noncoated T‐75 and T‐25 flasks under adherent conditions, using 1× DMEM (Gibco, 41,966,029) for PATU‐T and RPMI (Gibco, 21,875,034) for SUIT 2.28 and PANC‐1, both supplemented with 10% NBCS and 1% P/S. Additional employed models were the PDAC3 cells, a primary cell culture, the PSCs, which were immortalized healthy pancreatic cells, and the PATU‐T‐GR, which was a gemcitabine resistant model of PATU‐T. PDAC3 and PSCs were cultivated using complete RPMI medium, while PATU‐T‐GR required complete DMEM medium. For seeding, cells were detached with Trypsin‐EDTA (0.05%) (GibcoTM, 25,300–096) and were consequently counted using the Automated Cell Counter (Luna‐II, Westburg). Cells were then plated on 96‐ or 6‐well plates depending on the planned experiment.
The Sulforhodamine B (SRB) chemosensitivity assay was used to measure cytotoxicity and cell proliferation post drug treatment. At day 0, 3–6 × 10^3 cells were seeded in a 96‐well plate, depending on the cell line. At day 1, cells were attached and ready to be treated. For the calculation of the IC50, drug dilutions for the compounds 1b, 1c, 1d, 1e, 1g, 1hr, 1i, 1j, and LDC4297 (MedChemExpress, HY‐12,653) were prepared in dilution trays and eight different concentrations were included. These were added in triplicates to the cells, which were then incubated for […] at 37 °C in 5% CO2. During day 1, the control plate was fixed with 50% Trichloroacetic acid (TCA), as intended to be the baseline plate used for the normalization of the data. 72 h post‐treatment, the cells were fixed with TCA, and placed at 4 °C for about 2 h. The plates were then washed with distillated water and left to dry under the hood with ventilation. Subsequently, plates were stained with 0.4% SRB for 15 min and washed with 1% acetic acid to remove excess stain. Once dried again, the protein‐bound SRB was dissolved in 10 mM TRIS, and the plates were placed on a shaker for 10 min per plate. Lastly, the absorbance was measured at 492 nm with a spectrophotometer (Synergy HT, BioTek). The absorbance data obtained were normalized to the day 1 control, and the percentage of cell growth in relation to the control was calculated using the following formula. (1) %Cell growth=Mean OD treatment−Mean OD day0/Mean OD control−Mean OD day0×100
The percentage of proliferation and their respective standard deviations were used to perform statistical analysis in GraphPad Prism software v 10 (GraphPad Software, San Diego, CA). Data were normalized to the day 0 control and to their own untreated 72 h control. These were transformed into logarithmic data, and log(inhibitor) versus response analysis was performed for obtaining the IC50 values per cell lines. Each experiment was conducted in triplicates.

SUIT 2.28 [1] = assay: Annexin V apoptosis assay, SUIT 2.28; assay type: cell-based; conditions: 1× and 4 × IC50
Experimental: In order to investigate the apoptotic properties of the compounds 1b and 1g, the Annexin V apoptosis assay was performed. Annexins are calcium‐dependent phospholipid binding proteins, which are able to bind to phosphatidylserine (PS). The externalization of PS residues on the outer membrane of apoptotic cells can be detected by Annexin V.
For this assay, cells were seeded in a 96‐well plate at a concentration of 13.5 × 10^3 and 4.5 × 10^3 /well respectively for the 24 and 72 h experiments. The next day cells were treated with compounds 1b and 1g at 1 × IC50 and 4 × IC50 concentrations. The apoptosis assay was performed 24 and 72 h post‐treatment following the BD Pharmingen FITC Annexin V Apoptosis Detection Kit I (BD Biosciences, 556,547). The supernatant was aspirated, and cells were washed with phosphate‐buffered saline (PBS). Cells were consequently treated with binding buffer BBA + Annexin V (1:100) and were incubated in the dark at RT for 10 min. The supernatant was removed, and the cells were washed with BBA (1:10). Cells were then incubated with BBA + PI (1:100) and were immediately read with the spectrophotometer at ex. 485/ em. 535. Two different programs were used to read the Annexin V and the PI absorbance. Lastly, 100 µL of PBS were added to each well before being fixed with TCA. This was followed by the SRB assay to standardize fluorescence data according to cell count. Data were exported into GraphPad Prism 10 for statistical analysis.

SUIT 2.28 [2] = assay: Wound healing assay, SUIT 2.28; assay type: cell-based
Experimental: The wound healing assay was used to test the migratory ability of the selected cells post‐treatment. Cells (5 × 10^4 /well) were seeded on 96‐well. After 24 h, cells reached the optimal 100% confluency, and an artificial wound was created with a 96‐well Pintool Scratcher. The cells were immediately washed with complete medium, in order to remove cell debris after the scratch, and images of the wells were captured at time 0 h, right before the addition of the treatment. Each drug (1b and 1g) was previously diluted in the respective medium at two different concentrations: 1 × IC50 and 4 × IC50 (according to the cell specific IC50 value) and were then added to the cells. Images were then taken at timepoints 4, 8, 20, and 24 h using the Leica microscope with a JAI TMC‐137 camera to assess wound closure. The images were analyzed using the Universal Grab 6.3 software (DCILabs), and the obtained data were used to determine the percentage of migration of the cells, using the following formula. (2) % Migration=Mean width of the wound atT=0−Mean width of the wound atT=X/Mean width of the wound atT=0×100

[3] = biological target: phosphorylated CDK7 (p‐CDK7) (Homo sapiens, UniProt P50613); assay: Phospho‐CDK7 (Thr170) cell‐based ELISA, PDAC3; design: endogenous in cells; host or cells: PDAC3 primary cells; conditions: PDAC3, 4 × IC50, ELISA
Experimental: To detect CDK7 and phospho‐CDK7 levels at Thr170 residue after treatment, an enzyme‐linked immunosorbent assay (Biomatik, Phospho‐CDK7 (Thr170) Colorimetric Cell‐Based ELISA Kit, Cat# EKA51274) was performed according to the manufacturer's protocols. […] The absorbance was read at 450 nm using a microplate reader.

phosphorylated CDK7 (p‐CDK7), sequence (P50613 2-346 limits assumed): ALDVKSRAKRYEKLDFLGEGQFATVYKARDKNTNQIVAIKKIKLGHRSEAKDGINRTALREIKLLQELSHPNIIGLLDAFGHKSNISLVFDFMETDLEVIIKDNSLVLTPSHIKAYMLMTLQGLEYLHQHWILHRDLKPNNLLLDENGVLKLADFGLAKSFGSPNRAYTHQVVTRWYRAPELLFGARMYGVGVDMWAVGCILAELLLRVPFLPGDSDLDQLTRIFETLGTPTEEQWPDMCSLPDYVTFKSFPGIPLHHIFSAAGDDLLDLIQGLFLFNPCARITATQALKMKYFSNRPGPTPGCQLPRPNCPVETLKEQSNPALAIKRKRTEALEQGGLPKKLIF
phosphorylated CDK7 (p‐CDK7), sequence (P51946 whole entry partner): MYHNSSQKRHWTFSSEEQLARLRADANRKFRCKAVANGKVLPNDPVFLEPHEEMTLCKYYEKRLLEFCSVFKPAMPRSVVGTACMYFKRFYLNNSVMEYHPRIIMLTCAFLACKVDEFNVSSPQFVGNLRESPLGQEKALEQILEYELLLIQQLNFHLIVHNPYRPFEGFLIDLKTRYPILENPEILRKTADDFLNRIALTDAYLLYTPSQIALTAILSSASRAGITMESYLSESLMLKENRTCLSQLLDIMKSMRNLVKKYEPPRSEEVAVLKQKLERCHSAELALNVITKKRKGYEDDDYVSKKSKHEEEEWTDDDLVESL
phosphorylated CDK7 (p‐CDK7), sequence (P51948 whole entry partner): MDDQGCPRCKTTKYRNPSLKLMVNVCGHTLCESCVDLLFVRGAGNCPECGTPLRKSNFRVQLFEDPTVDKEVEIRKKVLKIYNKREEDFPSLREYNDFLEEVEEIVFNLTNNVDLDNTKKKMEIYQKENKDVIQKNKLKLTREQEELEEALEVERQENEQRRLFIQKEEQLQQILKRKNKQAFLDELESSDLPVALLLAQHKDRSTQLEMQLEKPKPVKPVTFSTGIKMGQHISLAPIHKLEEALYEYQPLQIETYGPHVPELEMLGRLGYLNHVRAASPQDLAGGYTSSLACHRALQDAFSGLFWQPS

In the case of Cn1cc(-c2cc3ncnc(N)n3n2)c2cc(Br)ccc21 [Compound 1g, 7‐(5‐Bromo‐1‐methyl‐1H‐indol‐3‐yl)pyrazolo[1,5‐a][1,3,5]triazin‐4‐amine], the IC50 (PATU‐T; 72 h) is reported as 1300 ± 100 nM, the apoptotic index (SUIT 2.28 [1]; SUIT 2.28, 24 h) is reported as “below 1.5” and the apoptotic index (SUIT 2.28 [1]; SUIT 2.28, 72 h) is reported as “higher apoptotic index”. For the same compound, the “inhibition of cell migration” value (SUIT 2.28 [2]; SUIT 2.28, 1 × IC50) was “greatest inhibition” and the “p‐CDK7 expression vs untreated” value [3] was “decrease in p‐CDK7 expression”.
Nc1ncnc2cc(-c3c[nH]c4ccc(Br)cc34)nn12 [Compound 1b, 7‐(5‐Bromo‐1H‐indol‐3‐yl)pyrazolo[1,5‐a][1,3,5]triazin‐4‐amine] was tested, and the IC50 (PATU‐T; SRB, 72 h of treatment, average ± SEM, triplicate) was 1400 ± 200 nM, the apoptotic index (SUIT 2.28 [1]; SUIT 2.28, 24 h) was “below 1.5” and the apoptotic index (SUIT 2.28 [1]; SUIT 2.28, 72 h) was “higher apoptotic index”. The “inhibition of cell migration” value (SUIT 2.28 [2]; SUIT 2.28, 1 × IC50 and 4 × IC50) was “strong inhibitory effects” and the “p‐CDK7 expression vs untreated” value [3] was “decrease in p‐CDK7 expression”.
